Consider two compounds from PMC7589200, “Identification of Putative Non-Substrate-Based XT-I Inhibitors by Natural Product Library Screening” (Biomolecules, 2020).

SMILES strings stand for the structures. Where two headings read alike, the source gives them in different places.

One assay has as its target T1, XT-I (Homo sapiens, UniProt Q86Y38).
T1 sequence (Q86Y38 260-959 limits assumed): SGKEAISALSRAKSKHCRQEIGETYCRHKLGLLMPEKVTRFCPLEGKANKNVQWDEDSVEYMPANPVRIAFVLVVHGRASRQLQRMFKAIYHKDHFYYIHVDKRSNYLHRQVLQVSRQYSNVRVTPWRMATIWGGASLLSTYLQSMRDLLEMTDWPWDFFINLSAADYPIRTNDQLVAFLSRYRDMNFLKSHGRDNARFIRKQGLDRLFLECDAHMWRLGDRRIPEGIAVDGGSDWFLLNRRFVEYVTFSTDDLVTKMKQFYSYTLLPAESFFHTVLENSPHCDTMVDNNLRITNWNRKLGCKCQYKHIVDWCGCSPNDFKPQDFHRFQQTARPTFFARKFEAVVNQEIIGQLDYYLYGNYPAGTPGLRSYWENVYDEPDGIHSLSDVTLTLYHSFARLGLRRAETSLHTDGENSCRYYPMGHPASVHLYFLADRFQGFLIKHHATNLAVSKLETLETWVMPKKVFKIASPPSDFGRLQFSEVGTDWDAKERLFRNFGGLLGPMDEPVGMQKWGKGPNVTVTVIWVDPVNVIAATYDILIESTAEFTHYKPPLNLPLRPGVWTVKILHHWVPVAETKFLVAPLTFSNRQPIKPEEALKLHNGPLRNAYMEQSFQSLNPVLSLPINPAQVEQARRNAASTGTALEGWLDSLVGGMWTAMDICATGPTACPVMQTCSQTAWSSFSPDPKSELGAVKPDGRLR
Briefly: IC50 determination, UPLC/ESI-MS/MS XT-I assay. The assay is classed as biochemical. An excerpt: The measurement of relative XT-I activity among different samples is based on the XT-catalyzed incorporation of xylose from UDP-D-xylose on a modified bikunin-derived peptide after a fixed reaction time. The assay was originally developed for the determination of XT activity in human- or cell-culture-derived samples [13] by ultra-performance liquid chromatography/electrospray ionization tandem mass spectrometry (UPLC/ESI-MS/MS). The UPLC/ESI-MS/MS XT assay was recently modified toward a XT-I selective activity determination in human serum and cell culture samples (unpublished data). The relative intensities of the xylosylated peptide species abundance obtained with the respective m/z ratio were directly proportional to the relative XT-I activity of the sample. The XT-I activity determined is expressed in arbitrary units and normalized to the total protein content per 1 mL sample volume in cell culture approaches. A calibrator probe with a fixed amount of recombinant XT-I enzyme was included in every UPLC-MS/MS XT-I assay for assay comparability across multiple runs. […]
Inhibitor candidates from the NP compound library were screened using the UPLC/ESI-MS/MS XT-I assay with recombinant XT-I protein solution from pgsA-6HisXT1-K4 cells. […] The XT-I activity of the protein-inhibitor mixtures were determined by UPLC/ESI-MS/MS as described above. […]

The test system of the next assay is XYLT2 mRNA expression. In words: XYLT2 mRNA expression in NHDFs by qRT-PCR. Type of assay: cell-based, human. The following applies: 48 h. The method, then: A former established cell culture model was utilized to investigate the effect of putative XT-I inhibitors on NHDFs. The inhibition studies were carried out with final inhibitor concentrations of 0.5, 1.0, 2.0 or 4.0 μM diluted in fully supplemented DMEM. In brief, unless otherwise stated, NHDFs were cultivated with a low density of 50 cells per mm^2 on a hard tissue culture substrate (100 × 20 mm dish) in fully supplemented DMEM with or without additional TGF-β1 (5 μg/L) for 24 h, promoting their transdifferentiation into proto-myofibroblasts. Thereafter, cells were treated with celastrol or amphotericin B in the presence or absence of TGF-β1 (5 μg/L) for an additional 48 h. Negative controls treated with solvent only were included for every sampling time. The final DMSO content of 0.04% (v/v) was kept constant in all inhibition experiments.
The RNA extraction from cell lysates and cDNA synthesis for mRNA and miRNA expression analysis were performed as described previously.
Quantitative real-time polymerase chain reaction (qRT-PCR) analysis using a LightCycler 480 Instrument II system (Roche, Basel, Swiss) was performed as previously described. The qRT-PCR experiments were conducted with three biological and three technical replicates per donor-derived primary cell culture, unless otherwise stated. The intron-spanning primer sequences used are listed in [7] and Table 1. The geometric mean of the expression levels of the housekeeping genes SDHA, RPL13A and B2M were calculated for expression normalization. The relative target gene mRNA expressions were determined by the ΔΔCT method considering the PCR efficiency. All normalized gene expression levels shown were referred to the respective target gene expression of one primary cell culture sample for the relative comparison of multiple biological samples per experiment and figures.

Usually IC50 stands for the concentration that inhibits the measured activity by half. Consider `C[C@@H]1[C@H](O)[C@@H](C)/C=C/C=C/C=C/C=C/C=C/C=C/C=C/[C@H](O[C@@H]2O[C@H](C)[C@@H](O)[C@H](N)[C@@H]2O)C[C@@H]2O[C@](O)(C[C@@H](O)C[C@@H](O)[C@H](O)CC[C@@H](O)C[C@@H](O)CC(=O)O[C@H]1C)C[C@H](O)[C@H]2C(=O)O` [Compound 17, Amphotericin B], for which the IC50 at XT-I (15 μM UDP-D-xylose, 10.5 μM acceptor peptide, 1 h preincubation at RT, read-out: IC50) worked out at 12.2 ± 1 µM. In the assay on XYLT2 mRNA expression (2.0 μM with TGF-β1 (5 μg/L), versus TGF-β1 only), the “XYLT2 mRNA expression level” value is recorded as “did not differ”.

On XT-I, `CC1=C(O)C(=O)C=C2C1=CC=C1[C@@]2(C)CC[C@@]2(C)[C@@H]3C[C@](C)(C(=O)O)CC[C@]3(C)CC[C@]12C` [Compound 68, Celastrol] returned an IC50 of 11 ± 1 µM. Also, the “XYLT2 mRNA expression level” value with XYLT2 mRNA expression (1.0 μM in the presence of TGF-β1 (5 μg/L)) is listed as “did not alter”.
